From ChEMBL document CHEMBL5465560, “Selectivity Literature for EUbOPEN Chemogenomic Library” (2024)

How the values were obtained:
[1] = target: T1, Myosin light chain kinase family member 4 (Homo sapiens) (UniProt Q86YV6); experiment: Selectivity interaction (KinomeScan (DiscoverX)) EUB0000229b MYLK4; conditions: at 10 µM
T1 sequence (whole entry): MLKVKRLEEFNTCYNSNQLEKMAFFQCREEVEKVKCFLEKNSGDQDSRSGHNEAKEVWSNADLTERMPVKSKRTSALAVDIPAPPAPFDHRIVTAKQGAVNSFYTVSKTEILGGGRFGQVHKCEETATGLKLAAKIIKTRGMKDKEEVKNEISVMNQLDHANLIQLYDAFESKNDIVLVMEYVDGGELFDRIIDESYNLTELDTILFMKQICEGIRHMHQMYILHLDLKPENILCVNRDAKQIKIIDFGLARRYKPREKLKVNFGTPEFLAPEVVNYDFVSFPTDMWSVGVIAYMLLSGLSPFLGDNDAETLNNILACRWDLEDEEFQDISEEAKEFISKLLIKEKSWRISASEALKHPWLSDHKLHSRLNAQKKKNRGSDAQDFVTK

[2] = target: Serine/threonine-protein kinase 35 (Homo sapiens) (UniProt Q8TDR2); experiment: Selectivity interaction (KinomeScan (DiscoverX)) EUB0000045b STK35
Chain of Serine/threonine-protein kinase 35 (Homo sapiens) (Q8TDR2 whole entry, canonical isoform): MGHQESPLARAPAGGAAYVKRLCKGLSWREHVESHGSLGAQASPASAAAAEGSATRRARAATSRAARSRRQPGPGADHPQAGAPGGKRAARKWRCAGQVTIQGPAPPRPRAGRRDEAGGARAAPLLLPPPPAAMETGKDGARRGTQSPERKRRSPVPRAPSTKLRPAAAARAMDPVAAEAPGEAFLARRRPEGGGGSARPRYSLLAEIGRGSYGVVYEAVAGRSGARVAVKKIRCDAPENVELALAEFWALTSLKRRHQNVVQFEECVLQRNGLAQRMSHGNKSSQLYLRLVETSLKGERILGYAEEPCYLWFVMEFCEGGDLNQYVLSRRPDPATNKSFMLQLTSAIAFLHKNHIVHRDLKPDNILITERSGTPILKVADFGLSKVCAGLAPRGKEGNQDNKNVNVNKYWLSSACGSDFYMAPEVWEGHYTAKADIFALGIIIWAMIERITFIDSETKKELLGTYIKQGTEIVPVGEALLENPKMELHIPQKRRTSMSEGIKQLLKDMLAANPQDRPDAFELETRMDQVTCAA

[3] = target: Casein kinase I isoform alpha (Homo sapiens, UniProt P48729); experiment: Selectivity interaction (KinomeScan (DiscoverX)) EUB0000045b CSNK1A1
Chain of Casein kinase I isoform alpha (P48729 2-337 limits assumed): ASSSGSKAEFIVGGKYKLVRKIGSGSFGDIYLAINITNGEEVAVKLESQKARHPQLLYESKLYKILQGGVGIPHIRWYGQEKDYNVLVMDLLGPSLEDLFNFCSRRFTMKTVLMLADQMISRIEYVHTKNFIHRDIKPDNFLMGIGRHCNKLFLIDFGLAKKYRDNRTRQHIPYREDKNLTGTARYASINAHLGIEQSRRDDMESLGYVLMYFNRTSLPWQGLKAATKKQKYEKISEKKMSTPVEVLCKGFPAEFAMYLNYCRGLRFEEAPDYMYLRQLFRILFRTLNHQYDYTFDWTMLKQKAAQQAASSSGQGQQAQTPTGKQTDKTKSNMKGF

[4] = target: Calcium/calmodulin-dependent protein kinase kinase 2 (Homo sapiens) (UniProt Q96RR4); experiment: Selectivity interaction (KinomeScan (DiscoverX)) EUB0000045b CAMKK2
Chain of Calcium/calmodulin-dependent protein kinase kinase 2 (Homo sapiens) (Q96RR4 2-588 limits assumed): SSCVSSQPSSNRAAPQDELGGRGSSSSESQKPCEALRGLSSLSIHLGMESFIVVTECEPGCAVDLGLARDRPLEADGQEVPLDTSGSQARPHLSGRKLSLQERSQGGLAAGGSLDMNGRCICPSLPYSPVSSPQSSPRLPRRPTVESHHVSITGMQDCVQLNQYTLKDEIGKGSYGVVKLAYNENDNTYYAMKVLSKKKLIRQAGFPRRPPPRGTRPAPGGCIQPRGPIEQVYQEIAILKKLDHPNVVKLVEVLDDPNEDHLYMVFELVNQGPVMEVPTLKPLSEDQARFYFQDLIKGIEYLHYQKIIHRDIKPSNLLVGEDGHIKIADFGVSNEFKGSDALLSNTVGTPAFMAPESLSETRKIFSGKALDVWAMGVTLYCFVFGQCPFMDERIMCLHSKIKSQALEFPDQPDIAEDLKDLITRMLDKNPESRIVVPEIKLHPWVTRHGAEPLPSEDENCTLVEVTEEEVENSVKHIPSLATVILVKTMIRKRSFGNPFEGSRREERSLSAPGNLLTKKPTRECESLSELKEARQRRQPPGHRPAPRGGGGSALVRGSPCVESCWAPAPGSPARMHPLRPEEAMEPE

[5] = target: Tyrosine-protein kinase BTK (Homo sapiens, UniProt Q06187); experiment: Selectivity interaction (KinomeScan (DiscoverX)) EUB0001079a BTK; conditions: at 1 µM
Chain of Tyrosine-protein kinase BTK (Q06187 whole entry): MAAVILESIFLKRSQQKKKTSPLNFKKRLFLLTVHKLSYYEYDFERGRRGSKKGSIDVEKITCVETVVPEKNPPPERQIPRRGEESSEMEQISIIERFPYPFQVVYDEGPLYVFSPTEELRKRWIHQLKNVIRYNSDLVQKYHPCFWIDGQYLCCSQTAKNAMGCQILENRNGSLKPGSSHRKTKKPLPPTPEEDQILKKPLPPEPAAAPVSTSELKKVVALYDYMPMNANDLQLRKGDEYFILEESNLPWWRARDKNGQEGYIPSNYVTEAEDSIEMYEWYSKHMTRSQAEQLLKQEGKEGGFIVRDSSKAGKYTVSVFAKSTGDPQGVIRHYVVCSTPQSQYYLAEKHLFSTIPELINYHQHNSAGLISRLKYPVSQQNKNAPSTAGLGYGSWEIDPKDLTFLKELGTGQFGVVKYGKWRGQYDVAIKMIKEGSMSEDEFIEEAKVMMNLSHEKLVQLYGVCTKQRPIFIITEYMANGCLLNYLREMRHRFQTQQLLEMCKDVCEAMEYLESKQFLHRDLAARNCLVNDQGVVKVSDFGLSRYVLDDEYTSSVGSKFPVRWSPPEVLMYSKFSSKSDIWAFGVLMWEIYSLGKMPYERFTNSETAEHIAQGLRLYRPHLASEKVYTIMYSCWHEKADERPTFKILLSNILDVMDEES

[6] = target: Serine/threonine-protein kinase VRK2 (Homo sapiens) (UniProt Q86Y07); experiment: Selectivity interaction (LanthaScreen Eu Kinase Binding Assay) EUB0001632a VRK2; conditions: at 10 µM
[7] = target: Serine/threonine-protein kinase 38-like (Homo sapiens) (UniProt Q9Y2H1); conditions: at 10 µM
Chain of Serine/threonine-protein kinase 38-like (Homo sapiens) (Q9Y2H1 2-464 limits assumed): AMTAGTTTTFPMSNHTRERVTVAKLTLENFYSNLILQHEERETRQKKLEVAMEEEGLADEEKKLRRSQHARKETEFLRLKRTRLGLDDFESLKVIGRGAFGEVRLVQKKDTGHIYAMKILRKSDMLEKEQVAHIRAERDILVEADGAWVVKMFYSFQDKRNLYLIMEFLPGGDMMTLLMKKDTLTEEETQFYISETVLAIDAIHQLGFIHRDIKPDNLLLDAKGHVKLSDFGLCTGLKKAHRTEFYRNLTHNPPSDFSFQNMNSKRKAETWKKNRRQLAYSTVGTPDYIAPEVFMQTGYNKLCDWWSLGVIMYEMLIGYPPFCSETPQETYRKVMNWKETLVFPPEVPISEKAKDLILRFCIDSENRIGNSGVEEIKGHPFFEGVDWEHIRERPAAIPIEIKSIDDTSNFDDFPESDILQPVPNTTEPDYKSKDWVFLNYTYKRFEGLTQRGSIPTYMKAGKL

[8] = target: Androgen receptor (Homo sapiens) (UniProt P10275); experiment: Selectivity interaction (Panel of non-epigenetic targets (kinases, GPCRs, ion channels, and transporters, Eurofins) ) EUB0000271b AR; conditions: at 1 µM
Chain of Androgen receptor (Homo sapiens) (P10275 whole entry): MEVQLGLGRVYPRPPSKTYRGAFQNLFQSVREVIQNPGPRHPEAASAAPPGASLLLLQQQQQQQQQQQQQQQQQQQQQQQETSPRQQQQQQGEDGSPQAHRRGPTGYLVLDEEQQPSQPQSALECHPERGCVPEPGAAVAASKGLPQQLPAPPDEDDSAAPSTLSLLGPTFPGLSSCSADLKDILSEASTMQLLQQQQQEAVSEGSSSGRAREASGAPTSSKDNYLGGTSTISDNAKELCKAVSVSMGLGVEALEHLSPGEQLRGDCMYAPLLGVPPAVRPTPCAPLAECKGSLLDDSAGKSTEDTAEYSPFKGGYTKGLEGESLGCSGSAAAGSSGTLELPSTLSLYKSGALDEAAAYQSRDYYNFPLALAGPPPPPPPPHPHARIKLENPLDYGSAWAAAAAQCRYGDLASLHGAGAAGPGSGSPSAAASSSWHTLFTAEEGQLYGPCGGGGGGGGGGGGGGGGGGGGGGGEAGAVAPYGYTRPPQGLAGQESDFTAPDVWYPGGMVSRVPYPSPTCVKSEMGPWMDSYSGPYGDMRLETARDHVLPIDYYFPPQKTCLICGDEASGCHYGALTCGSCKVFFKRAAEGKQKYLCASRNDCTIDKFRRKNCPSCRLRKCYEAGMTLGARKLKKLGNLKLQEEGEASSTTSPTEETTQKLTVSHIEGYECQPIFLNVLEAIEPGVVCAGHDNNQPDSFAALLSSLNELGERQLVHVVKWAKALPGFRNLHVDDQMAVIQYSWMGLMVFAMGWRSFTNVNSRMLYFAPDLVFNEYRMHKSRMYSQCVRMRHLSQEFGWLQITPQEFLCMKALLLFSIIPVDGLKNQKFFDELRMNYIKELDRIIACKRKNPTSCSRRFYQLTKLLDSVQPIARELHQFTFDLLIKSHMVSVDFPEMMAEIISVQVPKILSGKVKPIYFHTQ

[9] = target: Mast/stem cell growth factor receptor Kit (Homo sapiens, UniProt P10721); experiment: Selectivity interaction (Kinase screening (Nanosyn)) EUB0000604a KIT
[10] = target: T2, Interleukin-1 receptor-associated kinase 4 (Homo sapiens) (UniProt Q9NWZ3); experiment: Selectivity interaction (Upstate Kinase Profiler service (Millipore)) EUB0000056c IRAK4; conditions: at 1 µM
T2 sequence (whole entry): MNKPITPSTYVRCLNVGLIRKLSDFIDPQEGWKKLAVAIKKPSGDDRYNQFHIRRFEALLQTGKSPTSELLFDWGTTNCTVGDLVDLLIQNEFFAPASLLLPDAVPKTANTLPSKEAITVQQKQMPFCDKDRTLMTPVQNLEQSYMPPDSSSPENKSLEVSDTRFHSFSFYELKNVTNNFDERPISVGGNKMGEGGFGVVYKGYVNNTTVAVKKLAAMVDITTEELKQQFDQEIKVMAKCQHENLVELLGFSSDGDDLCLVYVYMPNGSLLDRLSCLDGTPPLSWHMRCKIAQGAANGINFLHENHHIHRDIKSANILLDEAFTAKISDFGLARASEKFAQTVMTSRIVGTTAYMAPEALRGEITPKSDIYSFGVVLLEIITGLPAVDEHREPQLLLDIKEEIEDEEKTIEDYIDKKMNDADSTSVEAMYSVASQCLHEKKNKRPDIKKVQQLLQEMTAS

[11] = target: Tyrosine-protein kinase CSK (Homo sapiens) (UniProt P41240); experiment: Selectivity interaction (Upstate Kinase Profiler service (Millipore)) EUB0000056c CSK; conditions: at 1 µM
Chain of Tyrosine-protein kinase CSK (Homo sapiens) (P41240 2-450 limits assumed): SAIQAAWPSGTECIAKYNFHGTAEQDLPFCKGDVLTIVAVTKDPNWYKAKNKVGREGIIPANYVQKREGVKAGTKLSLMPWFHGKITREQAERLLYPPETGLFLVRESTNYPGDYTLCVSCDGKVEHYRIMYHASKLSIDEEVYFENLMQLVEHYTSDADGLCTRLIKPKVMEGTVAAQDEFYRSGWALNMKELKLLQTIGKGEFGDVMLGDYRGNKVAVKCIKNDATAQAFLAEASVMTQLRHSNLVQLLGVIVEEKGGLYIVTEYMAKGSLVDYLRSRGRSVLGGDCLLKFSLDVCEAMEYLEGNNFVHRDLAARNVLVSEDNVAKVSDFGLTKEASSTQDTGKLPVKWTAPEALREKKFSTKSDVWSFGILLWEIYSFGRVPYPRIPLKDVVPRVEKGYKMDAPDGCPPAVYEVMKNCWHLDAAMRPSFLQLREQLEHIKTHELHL

[12] = target: Vascular endothelial growth factor receptor 1 (Homo sapiens) (UniProt P17948); experiment: Selectivity interaction (Kinase panel (DSF assay)) EUB0001489b FLT1
[13] = target: Serine/threonine-protein kinase 16 (Homo sapiens, UniProt O75716); experiment: Selectivity interaction (ActivX KiNativ screen (kinase selectivity in THP-1 cell lysates)) EUB0000639a STK16; type: subcellular; conditions: lysate, at 0.2 µM
[14] = target: Calcium/calmodulin-dependent protein kinase kinase 2 (Homo sapiens) (UniProt Q96RR4); experiment: Selectivity interaction (ActivX KiNativ screen (kinase selectivity in THP-1 cell lysates)) EUB0000639a CAMKK2; type: subcellular; conditions: lysate, at 0.2 µM
[15] = target: Platelet-derived growth factor receptor alpha (Homo sapiens, UniProt P16234); experiment: Selectivity interaction (Kinase panel (Invitrogen)) EUB0000639a PDGFRA; conditions: at 200 nM
[16] = target: Protein-tyrosine kinase 2-beta (Homo sapiens) (UniProt Q14289); experiment: Selectivity interaction (ActivX KiNativ screen (kinase selectivity in THP-1 cell lysates)) EUB0000639a PTK2B; type: subcellular; conditions: lysate, at 1 µM
Chain of Protein-tyrosine kinase 2-beta (Homo sapiens) (Q14289 whole entry, looked up): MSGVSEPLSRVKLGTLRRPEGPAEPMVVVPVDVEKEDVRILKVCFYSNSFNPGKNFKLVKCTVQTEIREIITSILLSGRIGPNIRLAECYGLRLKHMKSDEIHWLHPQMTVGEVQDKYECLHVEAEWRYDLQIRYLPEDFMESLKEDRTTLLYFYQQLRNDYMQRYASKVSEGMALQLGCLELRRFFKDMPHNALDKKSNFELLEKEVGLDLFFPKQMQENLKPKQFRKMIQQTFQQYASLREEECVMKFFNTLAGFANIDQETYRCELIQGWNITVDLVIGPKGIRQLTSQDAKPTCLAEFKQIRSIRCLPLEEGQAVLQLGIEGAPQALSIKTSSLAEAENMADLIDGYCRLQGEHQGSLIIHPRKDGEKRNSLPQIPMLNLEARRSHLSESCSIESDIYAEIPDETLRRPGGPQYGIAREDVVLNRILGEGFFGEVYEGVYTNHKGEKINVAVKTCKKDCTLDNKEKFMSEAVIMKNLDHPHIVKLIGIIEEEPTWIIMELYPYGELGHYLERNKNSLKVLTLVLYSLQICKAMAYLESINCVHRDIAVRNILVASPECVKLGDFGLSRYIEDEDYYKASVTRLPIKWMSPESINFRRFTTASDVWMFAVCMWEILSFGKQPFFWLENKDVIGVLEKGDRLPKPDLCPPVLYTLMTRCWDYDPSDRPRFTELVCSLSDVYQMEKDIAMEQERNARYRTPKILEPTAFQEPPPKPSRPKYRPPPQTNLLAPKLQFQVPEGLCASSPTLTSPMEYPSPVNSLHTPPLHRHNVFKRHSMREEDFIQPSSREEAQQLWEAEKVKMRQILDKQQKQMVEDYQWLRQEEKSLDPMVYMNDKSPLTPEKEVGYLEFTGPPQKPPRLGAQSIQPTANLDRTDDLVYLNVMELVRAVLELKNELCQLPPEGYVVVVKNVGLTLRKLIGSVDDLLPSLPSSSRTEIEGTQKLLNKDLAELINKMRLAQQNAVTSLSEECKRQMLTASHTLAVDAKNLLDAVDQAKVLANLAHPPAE

[17] = target: Insulin-like growth factor 1 receptor (Homo sapiens, UniProt P08069); conditions: at 10 µM

With COc1cc(N(C)c2ccnc3ccc(C(F)(F)F)cc23)cc(OC)c1OC the % binding [1] was 98%.
C=CC(=O)Nc1cc(-n2c(=O)ccc3cnc4ccc(-c5ccc(NS(C)(=O)=O)cc5)cc4c32)ccc1C gave a % of control ([2]; at 1 µM) of 100%, a % of control ([2]; at 10 µM) of 100% and a % of control ([3]; at 1 µM) of 100%. The % of control ([3]; at 10 µM) was 100%, the % of control ([4]; at 1 µM) was 100% and the % of control ([4]; at 10 µM) was 92%.
In the case of Nc1cnc(N2CCc3cc(S(=O)(=O)Nc4c(F)cc(Cl)cc4F)cc(N4CCCC4=O)c32)nc1 [TP-020n], the % of control [5] is reported as 100%.
Compound Cn1cc(-n2cnc3c(NCc4nc5cc(Cl)c(Cl)cc5[nH]4)nc(N4CCOCC4)nc32)cn1 has a % of inhibition [6] of -14%.
Cc1cc([C@@H](C)Nc2ccccc2C(=O)O)c2nc(N3CCOCC3)cc(=O)n2c1 [AZD-6482] was tested, and the % of control [7] was 94%.
Cc1cc(C)cc([C@@H]2c3cc(C)ccc3NC(=O)CN2C(=O)c2ccc(Br)s2)c1 showed a % of inhibition [8] of -7%.
Cc1cnc(Nc2ccc(F)cc2Cl)nc1-c1c[nH]c(C(=O)N[C@H](CO)c2cccc(Cl)c2)c1 showed a % of inhibition [9] of 8%.
Cc1ccc(-c2ccc3c(ccc4sc5c(c43)NC[C@@H](C)NC5=O)n2)cn1 gave a % of inhibition [10] of 13% and a % of inhibition [11] of 5%.
CN1CCN(C(=O)c2ccc3cc2OCCOCCNc2ccn4ncc-3c4n2)CC1 was tested, and the dTM [12] was 2.9 K.
CC[C@@H]1[C@H](F)C(=O)N[C@@H]1COc1nccc2cc(C(N)=O)c(OC)cc12 [ZIMLOVISERTIB] showed a % of inhibition [13] of 35.1%, a % of inhibition [14] of -5.9% and a % of inhibition [15] of 9.99%. The % of inhibition [16] was -3.6%.
Compound CCN(CC)CCCCNc1ncc2cc(-c3cc(OC)cc(OC)c3)c(NC(=O)NC(C)(C)C)nc2n1 has a % of control [17] of 100%.
